According to patent US20220313780A1, “METHODS AND COMPOSITIONS FOR TREATING INFLAMMATORY CONDITIONS” (THE SCRIPPS RESEARCH INSTITUTE, priority 2019, published 2022):
Entries after “also recorded” stand apart in the source; their conditions may differ.

System: caspase 1
Assay: Caspase 1 activity assay in PMA-differentiated THP1 cells treated with LPS and ATP
Type: cell-based, human
Settings: for caspase 1 activity: peptide 50 μM for 60 min before LPS (1 μg/mL) and ATP (5 mM), THP1 cells
Description: THP1-null (THP1) cells were plated at a final concentration of 1×10^6/mL in 96 well plates and incubated with PMA (0.5 μM) for 3 hours 37° C. in supplemented RPMI. Media was subsequently changed every 24 hours for 3 days. Various subsets of wells were selected and cells were treated for 60 minutes at 37° C. in serum-free RPMI with: (A) APC (4 μg/mL), TR47 (50 μM-2 nM), scrTR47 (50 μM), SFLLRN (50 μM), TFLLRN (50 μM); (B) P3R (50 μM-500 nM), P3K (50 μM); (C) APC (4 or 1 μg/mL), TR47 (8 nM), P3R (500 nM) or TR47+P3R (8 nM and 500 nM, respectively); (D) TR47 (0-128 nM) (●)±P3R (500 nM) (□); (E) P3R (0-500 nM) (●)±TR47 (1 nM) (□). Following DPBS wash, cells were incubated with LPS (1 μg/mL) for 3 hours at 37° C. in serum-free RPMI. After a DPBS wash, cells were incubated with ATP (5 mM) in the presence or absence of 10 μM YVAD (caspase 1 inhibitor) or 2.5 μM ZVAD (pan-caspase inhibitor) for 45 minutes at 37° C., prior to performing the caspase 1 activity assay following manufacturer's directions measuring luminescence (relative luminescent units, RLU). (D & E) Experimental caspase 1 activity was normalized to YVAD (caspase 1 inhibitor) luminescence units. (A-E) Data points represent mean±S.D. of at least 3 independent experiments. *P<0.05 (vs. LPS+ATP); #P<0.05 (vs. LPS+ATP & APC, TR47 or P3R); **P<0.005 (vs. LPS+ATP & TR47+500 nM P3R); n.s. not significant.
THP1 cells were plated at a final concentration of 1×10^6/mL in 96 well plates and incubated with PMA (0.5 μM) for 3 hours 37° C. in supplemented RPMI. Media was subsequently changed every 24 hours for 3 days. Selected wells were treated with APC (4 μg/mL), (A) 50 μM or (B) 2 μM of P3R, P3Rm, P3R 51-65, P3R 51-59, P3R 54-59 or P3R 59-65 for 1 hour, washed with DPBS, and incubated with LPS (1 μg/mL) for 3 hours at 37° C. in serum-free RPMI. Cells were washed with DPBS and incubated with ATP (5 mM) in the presence or absence of 10 μM YVAD (caspase 1 inhibitor; C1i) or 2.5 μM ZVAD (pan-caspase inhibitor; pCi) for 45 minutes at 37° C., prior to performing the caspase 1 activity assay following manufacturer's directions measuring luminescence (relative luminescent units, RLU). (C) Diagram showing the PAR3 sequence, peptide sequences and relative (anti-inflammatory) activity. These include sequences of P3R (SEQ ID NO:4), P3Rm (SEQ ID NO:8), P3R 51-65 (SEQ ID NO:9), P3R 51-59 (SEQ ID NO:10), P3R 54-59 (SEQ ID NO:54) and P3R 59-65 (SEQ ID NO:55).
THP1 cells were plated at a final concentration of 1×10^6/mL in 96 well plates and incubated with PMA (0.5 μM) for 3 hours 37° C. in supplemented RPMI. Media was subsequently changed every 24 hours for 3 days. Selected wells were treated with APC (4 μg/mL), TR47, in (A) 9-mer (TR47 9-mer; NPNDKYEPF (SEQ ID NO:36)) or Ac-TR47 (Acylated TR47) at either 50 μM or 10 nM or (B) 50 μM of 16-mer-TR47, 8-mer-TR47, 6-mer-TR47, TR47 N−1, TR47 N−2, TR47 N−5, TR47AQ, TR47AD, TR47AA or TR48-54 for 1 hour, washed with DPBS, and incubated with LPS (1 μg/mL) for 3 hours at 37° C. in serum-free RPMI. Cells were washed with DPBS and incubated with ATP (5 mM) in the presence or absence of 10 μM YVAD (caspase 1 inhibitor; C1i) or 2.5 μM ZVAD (pan-caspase inhibitor; pCi) for 45 minutes at 37° C., prior to performing the caspase 1 activity assay following manufacturer's directions measuring luminescence (relative luminescent units, RLU). #P<0.001 (vs. LPS+ATP), **P<0.005 (vs. LPS+ATP), * (P<0.05 vs. LPS+ATP). (C) Diagram showing the PAR1 sequence, peptide sequences and relative (anti-inflammatory) activity. These include sequences of TR47 (SEQ ID NO:7), Ac-TR47 (SEQ ID NO:56), 16-mer-TR47 (SEQ ID NO:43), 9-mer-TR47 (SEQ ID NO:36), 8-mer-TR47 (SEQ ID NO:35), 6-mer-TR47 (SEQ ID NO:33), TR47 N−1 (SEQ ID NO:47), TR47 N−2 (SEQ ID NO:51), TR47 N−5 (SEQ ID NO:48), TR47AQ (SEQ ID NO:49), TR47AD (SEQ ID NO:52), TR47AA (SEQ ID NO:50) and TR48-54 (SEQ ID NO:53). […]

| Sequence | normalized caspase 1 activity (P3R at ≤500 nM with 1 nM TR47) | caspase 1 activity | caspase 1 activity normalized to caspase 1 inhibited conditions (TR47 at <10 nM in the presence of 500 nM P3R) |
| --- | --- | --- | --- |
| GAPPNSFEEFPFSALEGWTGATIT [P3R, PAR3-derived 24-mer peptide] | a significant reduction in normalized caspase 1 activity was observed | reduced caspase 1 activity; also recorded: a significant reduction in caspase 1 activity was observed | – |
| NPNDKYEPFWEDEEKNESGL [TR47, PAR1-derived 20 amino acid peptide] | – | similarly reduced caspase 1 activity | a reduction in caspase 1 activity was observed |
